From patent US4084006A, “Method of using dialkylphenols an antiviral agents” (priority 1977, dated 1978) come the findings set out here.

The test has as its system San Carlos virus. Description: Dimethylphenols against San Carlos virus in tissue culture (human embryonic lung), CPE. Type of test: cell-based, San Carlos virus (adenovirus). Particulars: for CPE with TCID50 doses of San Carlos virus: human embryonic lung, 100 TCID50; for anti-viral activity against San Carlos virus: at various concentrations.

For the compound `Cc1cccc(C)c1O` [2,6-dimethylphenol], the “anti-viral activity against San Carlos virus” value (“anti-viral activity” for short) is listed as “exhibit anti-viral activity”. Besides, the “CPE with TCID50 doses of San Carlos virus” value (from here on “CPE with TCID50 doses”) (10^-6 grams 2X) was 2+ (50% of cells infected with selected virus). The “CPE with TCID50 doses” value (10^-7 grams 2X) is on record as 2+ (50% of cells infected with selected virus). The “CPE with TCID50 doses” value (10^-8 grams 2X) was 1+ (25% of cells infected with selected virus). In addition, the “CPE with TCID50 doses” value (10^-9 grams 2X) is recorded as 2+ (50% of cells infected with selected virus). Moreover, for the setting “10^-10 grams 2X”, the “CPE with TCID50 doses” value was 1+ (25% of cells infected with selected virus). The “CPE with TCID50 doses” value (10^-11 grams 2X) was 3+ (75% of cells infected with selected virus). Further, under “10^-12 grams 2X”, the “CPE with TCID50 doses” value is 2+ (50% of cells infected with selected virus). Under “10^-13 grams 2X”, the “CPE with TCID50 doses” value was 2+ (50% of cells infected with selected virus). Moreover, for the setting “10^-14 grams 2X”, the “CPE with TCID50 doses” value is listed as 1+ (25% of cells infected with selected virus). Also, the “CPE with TCID50 doses” value (10^-15 grams 2X) is 1+ (25% of cells infected with selected virus).
Take `Cc1ccc(O)cc1C` [3,4-dimethylphenol, reference compound]: the “CPE with TCID50 doses” value is given as 2+ (50% of cells infected with selected virus) (10^-6 grams 2X); 1+ (25% of cells infected with selected virus) (10^-7 grams 2X); 1+ (25% of cells infected with selected virus) (10^-8 grams 2X); 1+ (25% of cells infected with selected virus) (10^-9 grams 2X); 2+ (50% of cells infected with selected virus) (10^-10 grams 2X); 2+ (50% of cells infected with selected virus) (10^-11 grams 2X). In addition, the “CPE with TCID50 doses” value was 1+ (25% of cells infected with selected virus) (10^-12 grams 2X), 2+ (50% of cells infected with selected virus) (10^-13 grams 2X), 2+ (50% of cells infected with selected virus) (10^-14 grams 2X) and 1+ (25% of cells infected with selected virus) (10^-15 grams 2X).
Consider `Cc1cccc(O)c1C` [2,3-dimethylphenol], for which the “anti-viral activity” value is “exhibit anti-viral activity”. Besides, the “CPE with TCID50 doses” value (10^-6 grams 2X) was 3+ (75% of cells infected with selected virus). The “CPE with TCID50 doses” value (10^-7 grams 2X) was 2+ (50% of cells infected with selected virus). Further, under “10^-8 grams 2X”, the “CPE with TCID50 doses” value was 2+ (50% of cells infected with selected virus). In addition, for the setting “10^-9 grams 2X”, the “CPE with TCID50 doses” value was 1+ (25% of cells infected with selected virus). Also, the “CPE with TCID50 doses” value (10^-10 grams 2X) was 1+ (25% of cells infected with selected virus). Besides, the “CPE with TCID50 doses” value (10^-11 grams 2X) is on record as 1+ (25% of cells infected with selected virus). Further, the “CPE with TCID50 doses” value (10^-12 grams 2X) is recorded as 2+ (50% of cells infected with selected virus). Further, the “CPE with TCID50 doses” value (10^-13 grams 2X) is 1+ (25% of cells infected with selected virus). Also, the “CPE with TCID50 doses” value (10^-14 grams 2X) is 2+ (50% of cells infected with selected virus). Further, for the setting “10^-15 grams 2X”, the “CPE with TCID50 doses” value is on record as 2+ (50% of cells infected with selected virus).
In the case of `Cc1ccc(C)c(O)c1` [2,5-dimethylphenol], the “anti-viral activity” value is “exhibit anti-viral activity”. For the same compound, the “CPE with TCID50 doses” value (10^-6 grams 2X) is 3+ (75% of cells infected with selected virus). Besides, for the setting “10^-7 grams 2X”, the “CPE with TCID50 doses” value is given as 2+ (50% of cells infected with selected virus). Also, the “CPE with TCID50 doses” value (10^-8 grams 2X) was 1+ (25% of cells infected with selected virus). Besides, where the note is “10^-9 grams 2X”, the “CPE with TCID50 doses” value is given as “± (less than 10% infected)”. Moreover, the “CPE with TCID50 doses” value (10^-10 grams 2X) is reported as 1+ (25% of cells infected with selected virus). For the setting “10^-11 grams 2X”, the “CPE with TCID50 doses” value was 1+ (25% of cells infected with selected virus). Besides, the “CPE with TCID50 doses” value (10^-12 grams 2X) is given as “± (less than 10% infected)”. Also, the “CPE with TCID50 doses” value (10^-13 grams 2X) was “± (less than 10% infected)”. In addition, the “CPE with TCID50 doses” value (10^-14 grams 2X) is reported as “± (less than 10% infected)”. The “CPE with TCID50 doses” value (10^-15 grams 2X) was 2+ (50% of cells infected with selected virus).
